PubChem BioAssay (NCI)
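1) Cells in 96-well plates. 2) Compound, 48 h, 5 concentrations. 3) Linear interpolation between surrounding doses. 4) Unreached endpoint = highest concentration. TGI marks complete inhibition of growth.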

Experiments:
Assay in all cases: DTP human tumour cell line panel, 48 h
RXF 393 renal = system: RXF 393 renal
786-0 renal = system: 786-0 renal
EKVX NSCLC = system: EKVX NSCLC
NCI-H522 lung = system: NCI-H522 lung
MOLT-4 leukemia = system: MOLT-4 leukemia
KM12 colon = system: KM12 colon
NCI-H460 lung = system: NCI-H460 lung
HT29 colon = system: HT29 colon
UACC-62 melanoma = system: UACC-62 melanoma
SK-OV-3 ovarian = system: SK-OV-3 ovarian
SNB-75 CNS = system: SNB-75 CNS
SK-MEL-5 melanoma = system: SK-MEL-5 melanoma
UO-31 renal = system: UO-31 renal
SN12C renal = system: SN12C renal
SF-268 CNS = system: SF-268 CNS
NCI/ADR-RES ovarian = system: NCI/ADR-RES ovarian
A498 renal = system: A498 renal
HS 578T breast = system: HS 578T breast
OVCAR-3 ovarian = system: OVCAR-3 ovarian
SF-295 CNS = system: SF-295 CNS
HCC-2998 colon = system: HCC-2998 colon
OVCAR-8 ovarian = system: OVCAR-8 ovarian
HL-60(TB) leukemia = system: HL-60(TB) leukemia
IGROV1 ovarian = system: IGROV1 ovarian
SW-620 colon = system: SW-620 colon
CAKI-1 renal = system: CAKI-1 renal
SF-539 CNS = system: SF-539 CNS
TK-10 renal = system: TK-10 renal
HOP-62 NSCLC = system: HOP-62 NSCLC
UACC-257 melanoma = system: UACC-257 melanoma
LOX IMVI melanoma = system: LOX IMVI melanoma
COLO 205 colon = system: COLO 205 colon
MCF7 breast = system: MCF7 breast
OVCAR-5 ovarian = system: OVCAR-5 ovarian
K-562 leukemia = system: K-562 leukemia
CCRF-CEM leukemia = system: CCRF-CEM leukemia
T-47D breast = system: T-47D breast
NCI-H23 lung = system: NCI-H23 lung
MDA-MB-231 breast = system: MDA-MB-231 breast
MALME-3M melanoma = system: MALME-3M melanoma
RPMI-8226 leukemia = system: RPMI-8226 leukemia
HOP-92 NSCLC = system: HOP-92 NSCLC
NCI-H226 lung = system: NCI-H226 lung
PC-3 prostate = system: PC-3 prostate
SR leukemia = system: SR leukemia
DU-145 prostate = system: DU-145 prostate
ACHN renal = system: ACHN renal
A549 NSCLC = system: A549 NSCLC
MDA-MB-435 = system: MDA-MB-435
M14 melanoma = system: M14 melanoma
OVCAR-4 ovarian = system: OVCAR-4 ovarian
SK-MEL-28 melanoma = system: SK-MEL-28 melanoma
MDA-N = system: MDA-N
HCT-116 colon = system: HCT-116 colon
SNB-19 CNS = system: SNB-19 CNS
SK-MEL-2 melanoma = system: SK-MEL-2 melanoma
U251 CNS = system: U251 CNS
HCT-15 colon = system: HCT-15 colon
BT-549 breast = system: BT-549 breast

Structure (SMILES): CC(CO)CCNc1ncnc2c1ncn2CCC#N (stereo not drawn)
- TGI (RXF 393 renal): > 100 µM
- TGI (786-0 renal): > 100 µM
- TGI (EKVX NSCLC): > 100 µM
- TGI (NCI-H522 lung): > 100 µM
- TGI (MOLT-4 leukemia): > 100 µM
- TGI (KM12 colon): > 100 µM
- TGI (NCI-H460 lung): > 100 µM
- TGI (HT29 colon): > 100 µM
- TGI (UACC-62 melanoma): > 100 µM
- TGI (SK-OV-3 ovarian): > 100 µM
- TGI (SNB-75 CNS): > 100 µM
- TGI (SK-MEL-5 melanoma): > 100 µM
- TGI (UO-31 renal): > 100 µM
- TGI (SN12C renal): > 100 µM
- TGI (SF-268 CNS): > 100 µM
- TGI (NCI/ADR-RES ovarian): > 100 µM
- TGI (A498 renal): > 100 µM
- TGI (HS 578T breast): > 100 µM
- TGI (OVCAR-3 ovarian): > 100 µM
- TGI (SF-295 CNS): > 100 µM
- TGI (HCC-2998 colon): > 100 µM
- TGI (OVCAR-8 ovarian): > 100 µM
- TGI (HL-60(TB) leukemia): > 100 µM
- TGI (IGROV1 ovarian): > 100 µM
- TGI (SW-620 colon): > 100 µM
- TGI (CAKI-1 renal): > 100 µM
- TGI (SF-539 CNS): > 100 µM
- TGI (TK-10 renal): > 100 µM
- TGI (HOP-62 NSCLC): > 100 µM
- TGI (UACC-257 melanoma): > 100 µM
- TGI (LOX IMVI melanoma): > 100 µM
- TGI (COLO 205 colon): > 100 µM
- TGI (MCF7 breast): > 100 µM
- TGI (OVCAR-5 ovarian): > 100 µM
- TGI (K-562 leukemia): > 100 µM
- TGI (CCRF-CEM leukemia): > 100 µM
- TGI (T-47D breast): > 100 µM
- TGI (NCI-H23 lung): > 100 µM
- TGI (MDA-MB-231 breast): > 100 µM
- TGI (MALME-3M melanoma): > 100 µM
- TGI (RPMI-8226 leukemia): > 100 µM
- TGI (HOP-92 NSCLC): > 100 µM
- TGI (NCI-H226 lung): > 100 µM
- TGI (PC-3 prostate): > 100 µM
- TGI (SR leukemia): > 100 µM
- TGI (DU-145 prostate): > 100 µM
- TGI (ACHN renal): > 100 µM
- TGI (A549 NSCLC): > 100 µM
- TGI (MDA-MB-435): > 100 µM
- TGI (M14 melanoma): > 100 µM
- TGI (OVCAR-4 ovarian): > 100 µM
- TGI (SK-MEL-28 melanoma): > 100 µM
- TGI (MDA-N): > 100 µM
- TGI (HCT-116 colon): > 100 µM
- TGI (SNB-19 CNS): > 100 µM

Structure (SMILES): COc1ccc(Cc2c(-c3ccc(C)cc3)n[nH]c(=O)c2C2C(=O)N(c3ccccc3)N=C2c2ccccc2)cc1 (stereo not drawn)
- TGI (RXF 393 renal): 57 µM
- TGI (786-0 renal): > 100 µM
- TGI (EKVX NSCLC): 83.1 µM
- TGI (NCI-H522 lung): > 100 µM
- TGI (MOLT-4 leukemia): > 67.7 µM
- TGI (KM12 colon): 57.1 µM
- TGI (NCI-H460 lung): > 89.3 µM
- TGI (HT29 colon): > 100 µM
- TGI (UACC-62 melanoma): 40.4 µM
- TGI (SK-OV-3 ovarian): > 100 µM
- TGI (SNB-75 CNS): 81.3 µM
- TGI (SK-MEL-5 melanoma): 38.9 µM
- TGI (UO-31 renal): > 100 µM
- TGI (SK-MEL-2 melanoma): 52.5 µM
- TGI (SN12C renal): > 95.6 µM
- TGI (SF-268 CNS): > 100 µM
- TGI (NCI/ADR-RES ovarian): 58 µM
- TGI (A498 renal): 65.4 µM
- TGI (HS 578T breast): 82.9 µM
- TGI (OVCAR-3 ovarian): 45.8 µM
- TGI (SF-295 CNS): 60.8 µM
- TGI (HCC-2998 colon): 79.5 µM
- TGI (OVCAR-8 ovarian): > 96.6 µM
- TGI (HL-60(TB) leukemia): 67.6 µM
- TGI (IGROV1 ovarian): 85.1 µM
- TGI (SW-620 colon): > 100 µM
- TGI (U251 CNS): > 100 µM
- TGI (CAKI-1 renal): > 88.6 µM
- TGI (SF-539 CNS): 56.1 µM
- TGI (TK-10 renal): 87.2 µM
- TGI (HOP-62 NSCLC): > 100 µM
- TGI (UACC-257 melanoma): 81.2 µM
- TGI (LOX IMVI melanoma): 46.6 µM
- TGI (COLO 205 colon): 40.3 µM
- TGI (MCF7 breast): > 91.3 µM
- TGI (OVCAR-5 ovarian): > 95.7 µM
- TGI (K-562 leukemia): > 76.6 µM
- TGI (CCRF-CEM leukemia): > 78.8 µM
- TGI (T-47D breast): > 100 µM
- TGI (NCI-H23 lung): 72.1 µM
- TGI (MDA-MB-231 breast): > 90.4 µM
- TGI (MALME-3M melanoma): 65.2 µM
- TGI (RPMI-8226 leukemia): 80.3 µM
- TGI (HOP-92 NSCLC): 75.3 µM
- TGI (NCI-H226 lung): 81.9 µM
- TGI (PC-3 prostate): > 91.8 µM
- TGI (SR leukemia): > 79.3 µM
- TGI (DU-145 prostate): > 100 µM
- TGI (HCT-15 colon): > 100 µM
- TGI (ACHN renal): > 100 µM
- TGI (A549 NSCLC): 84.3 µM
- TGI (MDA-MB-435): 45 µM
- TGI (M14 melanoma): 81.8 µM
- TGI (OVCAR-4 ovarian): > 100 µM
- TGI (SK-MEL-28 melanoma): > 90.3 µM
- TGI (MDA-N): 58.3 µM
- TGI (HCT-116 colon): 46.4 µM
- TGI (SNB-19 CNS): > 100 µM

Structure (SMILES): C(CCCCc1nnc(N2CCOCC2)o1)CCCc1nnc(N2CCOCC2)o1
- TGI (RXF 393 renal): > 100 µM
- TGI (786-0 renal): > 100 µM
- TGI (EKVX NSCLC): > 100 µM
- TGI (MOLT-4 leukemia): > 100 µM
- TGI (KM12 colon): > 100 µM
- TGI (NCI-H460 lung): > 100 µM
- TGI (HT29 colon): > 100 µM
- TGI (SK-OV-3 ovarian): > 100 µM
- TGI (SNB-75 CNS): > 100 µM
- TGI (SK-MEL-5 melanoma): > 100 µM
- TGI (UO-31 renal): > 100 µM
- TGI (BT-549 breast): > 100 µM
- TGI (SK-MEL-2 melanoma): > 100 µM
- TGI (SN12C renal): > 100 µM
- TGI (NCI/ADR-RES ovarian): > 100 µM
- TGI (A498 renal): > 100 µM
- TGI (OVCAR-3 ovarian): > 100 µM
- TGI (SF-295 CNS): > 100 µM
- TGI (OVCAR-8 ovarian): > 100 µM
- TGI (HL-60(TB) leukemia): > 100 µM
- TGI (IGROV1 ovarian): > 100 µM
- TGI (SW-620 colon): > 100 µM
- TGI (U251 CNS): > 100 µM
- TGI (CAKI-1 renal): > 100 µM
- TGI (SF-539 CNS): > 100 µM
- TGI (TK-10 renal): > 100 µM
- TGI (HOP-62 NSCLC): > 100 µM
- TGI (UACC-257 melanoma): > 100 µM
- TGI (LOX IMVI melanoma): > 100 µM
- TGI (COLO 205 colon): > 100 µM
- TGI (MCF7 breast): > 100 µM
- TGI (OVCAR-5 ovarian): > 100 µM
- TGI (K-562 leukemia): > 100 µM
- TGI (CCRF-CEM leukemia): > 100 µM
- TGI (NCI-H23 lung): > 100 µM
- TGI (MDA-MB-231 breast): > 100 µM
- TGI (HOP-92 NSCLC): > 100 µM
- TGI (NCI-H226 lung): > 100 µM
- TGI (PC-3 prostate): > 100 µM
- TGI (DU-145 prostate): > 100 µM
- TGI (HCT-15 colon): > 100 µM
- TGI (ACHN renal): > 100 µM
- TGI (A549 NSCLC): > 100 µM
- TGI (MDA-MB-435): > 100 µM
- TGI (M14 melanoma): > 100 µM
- TGI (OVCAR-4 ovarian): > 100 µM
- TGI (SK-MEL-28 melanoma): > 100 µM
- TGI (MDA-N): > 100 µM
- TGI (HCT-116 colon): > 100 µM
- TGI (SNB-19 CNS): > 100 µM
